Experiments:
Assay type in all cases: cell-based
[1] = molecular target: T1, OR2W1 (Homo sapiens, UniProt Q9Y3N9); assay: Luciferase reporter assay: suppression of the skatole response of OR2W1 expressed in HEK293 cells; settings: test substance 100 μM mixed with 300 μM skatole, HEK293 cells expressing OR2W1; for inhibition at 100 µM: 4 h, read-out: Inhibition rate 2W1
T1 construct: expressed in transfected cells; host or cells: HEK293
T1 sequence (Q9Y3N9 1-320): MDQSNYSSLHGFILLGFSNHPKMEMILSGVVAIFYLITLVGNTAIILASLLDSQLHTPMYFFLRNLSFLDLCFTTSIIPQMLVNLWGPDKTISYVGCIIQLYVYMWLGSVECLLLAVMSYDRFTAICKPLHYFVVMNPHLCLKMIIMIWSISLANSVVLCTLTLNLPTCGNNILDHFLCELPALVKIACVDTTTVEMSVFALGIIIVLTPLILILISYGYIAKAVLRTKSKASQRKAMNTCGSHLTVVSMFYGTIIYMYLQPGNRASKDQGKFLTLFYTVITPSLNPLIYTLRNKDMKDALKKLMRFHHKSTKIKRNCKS
Method: (§1) A reaction solution having a composition shown in Table 1 was prepared on a clean bench, and left to stand for 15 minutes. The solution was dispensed to each well of a 96-well plate (BD). Subsequently, HEK293 cells (100 μL, 3×10^5 cells/cm^2) were seeded in each well and cultured for 24 hours in an incubator at 37° C. and under 5% CO2 conditions.
(§2) The olfactory receptor expressed in HEK293 cells activates adenylate cyclase with the aid of Gαs present in cells, to thereby increase intracellular cAMP level. In this study, odorant response was measured by a luciferase reporter gene assay which monitored the intracellular cAMP level as the luminescence value derived from a firefly luciferase gene (fluc2P-CRE-hygro). Also, a Renilla luciferase gene fused downstream of a CMV promoter (hRluc-CMV) was also transfected to HEK293 cells as an internal standard to correct errors in gene transfer efficiency and number of cells.
(§3) Cell culturing was performed for four hours in a CO2-incubator, whereby the luciferase gene sufficiently expressed in the cells. Luciferase activity was measured by means of a Dual-Glo™ luciferase assay system (promega) according to an instruction manual thereof. The luminescence value derived from firefly luciferase induced by odorant stimulation was divided by the luminescence value of cells which were not stimulated with odorants. The thus-obtained—called “fold increase”—was employed as an index for response intensity.
(§4) The response inhibition rate of a test substance was calculated as follows. Firstly, luminescence value derived from firefly luciferase induced by stimulation with skatole (X), and luminescence value in cells which expressed the same receptor but were not stimulated with skatole (Y) were determined. By subtracting Y from X, the receptor activity by stimulation with skatole alone (X−Y) was determined. Similarly, the luminescence value induced by stimulation with a mixture of skatole and a test substance (Z) was determined. Through subtracting Y (the luminescence value in cells which expressed the same receptor but were not stimulated with skatole) from Z, the receptor activity (Z−Y) by stimulation with a mixture of skatole and the test substance was obtained. From the thus-obtained receptor activity by stimulation with skatole alone (X−Y) and the receptor activity in the presence of a test material (Z−Y), the response inhibition rate of the test substance was calculated by the following equation: Inhibition rate (%)={1−(Z−Y)/(X−Y)}×100.
(§5) In each case, multiple independent experiments were performed in duplicate, and the average of each experiment was used.

[2] = molecular target: T2, OR5K1 (Homo sapiens, UniProt Q8NHB7); assay: Luciferase reporter assay: suppression of the skatole response of OR5K1 expressed in HEK293 cells; settings: test substance 100 μM mixed with 300 μM skatole, HEK293 cells expressing OR5K1; for inhibition at 100 µM: 4 h, read-out: Inhibition rate 5K1
T2 construct: expressed in transfected cells; host or cells: HEK293
T2 sequence (Q8NHB7 1-308): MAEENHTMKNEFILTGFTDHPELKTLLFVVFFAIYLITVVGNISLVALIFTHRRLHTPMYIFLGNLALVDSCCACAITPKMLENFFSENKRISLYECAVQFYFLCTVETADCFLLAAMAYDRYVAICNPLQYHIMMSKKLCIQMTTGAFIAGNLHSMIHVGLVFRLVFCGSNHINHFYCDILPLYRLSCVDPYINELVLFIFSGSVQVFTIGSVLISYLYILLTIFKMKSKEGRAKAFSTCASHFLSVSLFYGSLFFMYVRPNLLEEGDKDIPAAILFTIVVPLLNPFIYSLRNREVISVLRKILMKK
Method: as §1, §2, §3, §4, §5

[3] = molecular target: T3, OR5P3 (Homo sapiens, UniProt Q8WZ94); assay: Luciferase reporter assay: suppression of the skatole response of OR5P3 expressed in HEK293 cells; settings: test substance 100 μM mixed with 300 μM skatole, HEK293 cells expressing OR5P3
T3 construct: expressed in transfected cells; host or cells: HEK293
T3 sequence (Q8WZ94 1-311): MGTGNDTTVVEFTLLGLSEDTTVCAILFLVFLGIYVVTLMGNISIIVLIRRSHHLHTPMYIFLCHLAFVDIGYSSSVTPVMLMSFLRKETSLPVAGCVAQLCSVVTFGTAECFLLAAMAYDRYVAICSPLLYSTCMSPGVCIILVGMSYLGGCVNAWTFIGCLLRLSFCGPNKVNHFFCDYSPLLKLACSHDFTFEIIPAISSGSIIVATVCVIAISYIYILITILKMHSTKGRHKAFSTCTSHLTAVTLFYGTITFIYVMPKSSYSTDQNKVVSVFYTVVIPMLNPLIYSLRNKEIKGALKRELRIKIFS
Method: as §1, §2, §3, §4, §5

[4] = molecular target: T4, OR8H1 (Homo sapiens, UniProt Q8NGG4); assay: Luciferase reporter assay: suppression of the skatole response of OR8H1 expressed in HEK293 cells; settings: test substance 100 μM mixed with 300 μM skatole, HEK293 cells expressing OR8H1; for inhibition at 100 µM: 4 h, read-out: Inhibition rate 8H1
T4 construct: expressed in transfected cells; host or cells: HEK293
T4 sequence (Q8NGG4 1-311): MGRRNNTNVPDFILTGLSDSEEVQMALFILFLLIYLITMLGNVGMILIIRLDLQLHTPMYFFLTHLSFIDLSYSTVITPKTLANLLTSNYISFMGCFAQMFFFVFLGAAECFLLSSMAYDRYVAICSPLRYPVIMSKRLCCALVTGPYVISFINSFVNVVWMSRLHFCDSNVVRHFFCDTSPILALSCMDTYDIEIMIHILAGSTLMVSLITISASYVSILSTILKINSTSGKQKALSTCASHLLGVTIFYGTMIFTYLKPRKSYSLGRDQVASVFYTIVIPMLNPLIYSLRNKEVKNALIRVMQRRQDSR
Method: as §1, §2, §3, §4, §5

Compound | inhibition at 100 µM [1] | inhibition at 100 µM [2] | Inhibition rate 5P3 [3] | inhibition at 100 µM [4] | Inhibition rate 2W1 [1] | Inhibition rate 5K1 [2] | Inhibition rate 8H1 [4]
CC(C=O)C1CCCCC1 (stereo not shown) [Pollenal II, 2-Cyclohexylpropanal] | 20 to 50% | 20 to 50% | C (C >20%) | < 20% |  |  | 
CC/C=C\CCOC(=O)c1ccccc1O [cis-3-hexynlyl salicylate, 3(Z)-Hexenyl 2-hydroxy benzoate] |  |  | B (B >50%) |  | B (B >50%) | C (C >20%) | 
CC1=CC(C)C(C=O)CC1 (stereo not shown) [Triplal, Dimethyl-3-cyclohexene-1-carboxaldehyde] |  |  | C (C >20%) |  | C (C >20%) |  | C (C >20%)
C=CC(C)(O)CCC=C(C)CCC=C(C)C (stereo not shown) [nerolidol, 3,7,11-Trimethyl-1,6,10-dodecatrien-3-ol] | > 80% | < 20% | A (A >80%) | < 20% |  |  | 
Hexahydro-4,7-methanoinden-5(6)-yl acetate [tricyclodecenyl acetate] |  |  | C (C >20%) |  |  | C (C >20%) | B (B >50%)
CC1(C)CCCC2(C)C1CCC1(C)OCCC12 (stereo not shown) [Ambroxane, Dodecahydro-3a,6,6,9a-tetramethyl-naphtho[2.1-b]furan] |  |  | B (B >50%) |  | A (A >80%) | C (C >20%) | A (A >80%)
CC(C)c1cccc(C(C)CC=O)c1 (stereo not drawn) [Florhydral, β-Methyl-3-(1-methylethyl)benzenepropanal] | 50 to 80% | 50 to 80% | B (B >50%) | 50 to 80% |  |  | 
2,6-Dimethyl-2-octanol/3,7-Dimethyl-3-octanol [tetrahydromugol] |  |  | C (C >20%) |  |  | C (C >20%) | C (C >20%)
CCOC(=O)OC1CCCCC1C(C)(C)C (stereo not shown) [Flormat, Ethyl 2-tert-butyl cyclohexyl carbonate] |  |  | A (A >80%) |  | A (A >80%) | B (B >50%) | A (A >80%)
C=CCOC(=O)CCC1CCCCC1 [Allyl cyclohexylpropionate] |  |  |  |  | C (C >20%) | C (C >20%) | C (C >20%)
CC(C=O)Cc1ccc(C(C)(C)C)cc1 (stereo not drawn) [lilial, p-tert-Butyl-α-methyl hydrocinnamic aldehyde] |  |  | C (C >20%) |  | C (C >20%) | C (C >20%) | C (C >20%)
CC(CO)CC(C)c1ccccc1 (stereo not shown) [Pumple fleur, 2-Methyl-4-phenylpentanol] | < 20% | 20 to 50% | A (A >80%) | 50 to 80% |  |  | 

Source: US9249453B2, “Method for identifying a malodor inhibitor” (Kao Corporation, priority 2011, dated 2016)
